Results published in publication PMC9321231.

What was measured:
[1] = test system: human biphenotypic B myelomonocytic leukemia (MV4-11) cells; assay: Antiproliferative assay (MTT or SRB), MV4-11; assay type: cell-based; conditions: for IC50: Homo sapiens, MV4-11, MV-4-11, read-out: IC50 ± SD, antiproliferative activity; for Calculated Selectivity Index SI: IC50 Balb/3T3 / IC50 MV-4-11
Description: (§1) Cell preparation, an in vitro antiproliferative assay, and MTT and SRB cytotoxic tests were performed according to the literature.

[2] = test system: human breast adenocarcinoma (MDA-MB-231) cells; assay: Antiproliferative assay (MTT or SRB), MDA-MB-231; assay type: cell-based; conditions: for IC50: Homo sapiens, MDA-MB-231, read-out: IC50 ± SD, antiproliferative activity; for Calculated Selectivity Index SI: IC50 Balb/3T3 / IC50 MDA-MB-231
Description: as §1

[3] = test system: urinary bladder carcinoma (UMUC-3) cells; assay: Antiproliferative assay (MTT or SRB), UMUC-3; assay type: cell-based, human; conditions: for IC50: Homo sapiens, UMUC3, UMUC-3, read-out: IC50 ± SD, antiproliferative activity; for Calculated Selectivity Index SI: IC50 Balb/3T3 / IC50 UMUC-3
Description: as §1

[4] = test system: normal mouse fibroblast (BALB/3T3) cells; assay: Antiproliferative assay (MTT or SRB), normal fibroblasts BALB/3T3; assay type: cell-based; conditions: Balb/3T3 normal mouse fibroblasts; read-out: IC50 ± SD, antiproliferative activity
Description: Anticancer drugs are toxic to cancer cells, but also show some toxicity to healthy cells. […] The selectivity indexes for thiazoles 3a–3j against MV4-11 and A-549 cells were in general much higher than for MDA-MB-231 and UMUC-3 cells.
as §1

[5] = test system: A549 cells; assay: Apoptosis/necrosis assay, Annexin V-FITC/PI flow cytometry; assay type: cell-based, human; conditions: for percentage of A549 cells undergoing apoptosis: 48 h, control 6.05 ± 0.17%; for induction of necrosis: A549, 48 h
Description: The rate of cell apoptosis and necrosis was detected using Annexin V-FITC/PI double staining. […] Compound 3e turned out to be a stronger inducer of apoptosis than 3c. […] In turn, compound 3c induced apoptosis only at the concentrations of 10 and 20 µM, and the percentage of cells undergoing apoptosis increased from 6.05 ± 0.17% in the control to 10.14 ± 0.76% and 14.67 ± 0.68%, respectively (Figure 4B). Moreover, compound 3e at a concentration of 5 µM induced apoptosis to a similar level as cisplatin (CDDP) used at a concentration of 4 µM. To identify the mechanism of the 3c- and 3e-induced apoptosis in the A549 cells, the activation of effector caspase-3 was evaluated by flow cytometry. […] To further explore the antiproliferative activity of compounds 3c and 3e, the influence of both compounds on the distribution of cell cycle phases in the A549 cells was analyzed. […] The G2 checkpoint prevents cells from entering mitosis when DNA is damaged, providing an opportunity for repair and stopping the proliferation of damaged cells. […] Apoptosis is a crucial process involved in the regulation of tumor formation and in the treatment response; therefore, cancer therapy has been linked to activation of the apoptosis signal transduction pathway. Caspase-3, an executioner caspase, plays an important role in apoptosis and becomes a primary target for cancer treatment.
The fluorescence-activated cell sorting (FACS) technique was employed to analyze the 3c- and 3e-induced cell death, the activation of executive caspase-3, and the cell cycle in the A549 cells. The quantitative analysis of apoptosis and necrosis was performed using an Annexin V-fluorescein isothiocyanate (FITC)/ propidium iodide (PI) apoptosis kit (BD Biosciences, BD Pharmingen™, San Jose, CA, USA) as previously described. To determine the active form of caspase-3, the A549 cells were plated into 6-well plates at a density of 6 × 10^5 cells/well. The next day, the growth medium was replaced with a fresh one supplemented with compound 3c or 3e (10, 20, and 40 µM) or the DMSO vehicle (0.1%; control cells). After 48-h incubation, the samples were harvested and the level of active caspase-3 was determined using the phycoerythrin (PE) Active Caspase-3 Apoptosis Kit (BD Pharmingen™) according to the manufacturer’s instructions. The stained cells were analyzed using FACS Calibur, and data were analyzed using Cell Quest Pro Version 6.0 (BD Biosciences, San Jose, CA, USA) for the Macintosh operating system. The results were calculated as a percent of cells with active caspase-3 among all the analyzed cells. The cell cycle analysis was performed by determination of the DNA contents on the basis of PI staining as previously described.
Figure 4 Effect of compounds 3c and 3e and cisplatin (CDDP) on apoptosis induction in the A549 cell line. After the 48-h exposure to the indicated concentrations of the compounds, the cells were stained with annexin (An) V-FITC)/propidium iodide (PI) and examined with flow cytometry. (A) The representative graphs obtained by flow cytometric analysis: dot plots indicate the percentage of An−/PI+ necrotic cells (Q1), An+ /PI+ late apoptotic cells (Q2), An−/PI− viable cells (Q3), and An+ /PI− early apoptotic cells (Q4). (B) Statistical analysis of the apoptotic (early + late apoptosis) and necrotic rate populations after the 3c, 3e, and cisplatin (CDDP) treatment. Data are presented as mean ± SD from three independent experiments; *** p < 0.001 in comparison to the control; one-way ANOVA followed by Dunnett’s post hoc test.

[6] = test system: caspase-3 in A549 cells; assay: Active caspase-3 flow cytometry; assay type: cell-based, human; conditions: A549, 48 h; 10, 20 and 40 µM per method
Description: The rate of cell apoptosis and necrosis was detected using Annexin V-FITC/PI double staining. […] Compound 3e turned out to be a stronger inducer of apoptosis than 3c. […] In turn, compound 3c induced apoptosis only at the concentrations of 10 and 20 µM, and the percentage of cells undergoing apoptosis increased from 6.05 ± 0.17% in the control to 10.14 ± 0.76% and 14.67 ± 0.68%, respectively (Figure 4B). Moreover, compound 3e at a concentration of 5 µM induced apoptosis to a similar level as cisplatin (CDDP) used at a concentration of 4 µM. To identify the mechanism of the 3c- and 3e-induced apoptosis in the A549 cells, the activation of effector caspase-3 was evaluated by flow cytometry. […] To further explore the antiproliferative activity of compounds 3c and 3e, the influence of both compounds on the distribution of cell cycle phases in the A549 cells was analyzed. […]
The fluorescence-activated cell sorting (FACS) technique was employed to analyze the 3c- and 3e-induced cell death, the activation of executive caspase-3, and the cell cycle in the A549 cells. The quantitative analysis of apoptosis and necrosis was performed using an Annexin V-fluorescein isothiocyanate (FITC)/ propidium iodide (PI) apoptosis kit (BD Biosciences, BD Pharmingen™, San Jose, CA, USA) as previously described. […] The results were calculated as a percent of cells with active caspase-3 among all the analyzed cells. […]

[7] = molecular target: T1, human neutrophil elastase (HNE) (Homo sapiens, UniProt P08246); assay: Human neutrophil elastase inhibition assay (spectrofluorimetric, MeOSuc-AAPV-AMC substrate)
T1 sequence (P08246 30-267): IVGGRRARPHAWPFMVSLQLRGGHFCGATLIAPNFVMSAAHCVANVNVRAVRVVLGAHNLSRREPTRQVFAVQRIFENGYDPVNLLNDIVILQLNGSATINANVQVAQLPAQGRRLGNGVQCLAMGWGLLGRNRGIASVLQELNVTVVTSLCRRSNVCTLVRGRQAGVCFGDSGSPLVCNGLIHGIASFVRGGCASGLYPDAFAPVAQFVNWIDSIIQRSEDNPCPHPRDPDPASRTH
Description: The inhibition of human neutrophil elastase was carried out by the spectrofluorimetric method using N-methoxysuccinyl-Ala-Ala-Pro-Val-7-amido-4-methylcoumarin (MeOSuc-AAPV-AMC) as substrate.

CCC1(CC)C(=O)N(c2ccc(-c3csc(Nc4cc(OC)c(OC)c(OC)c4)n3)cc2)C1=O [3c, 3,3-Diethyl-1-(4-(2-(3,4,5-trimethoxyphenylamino)thiazol-4-yl)phenyl)azetidine-2,4-dione]
IC50 [1]: 4.59 ± 2.03 µM
Calculated Selectivity Index SI [1]: 1.62
IC50 [2]: 6.38 ± 0.71 µM
Calculated Selectivity Index SI [2]: 1.16
IC50 [3]: 6.9 ± 0.21 µM
Calculated Selectivity Index SI [3]: 1.07
IC50 [4]: 7.42 ± 1.04 µM
percentage of A549 cells undergoing apoptosis ([5]; 10 µM): 10.14 ± 0.76%
percentage of A549 cells undergoing apoptosis ([5]; 20 µM): 14.67 ± 0.68%
induction of necrosis [5]: no induction of necrosis was observed
number of cells with active caspase 3 [6]: concentration-dependent increase in the number of cells with active caspase 3
IC50 [7]: 38.2 ± 4.91 nM

CCC1(CC)C(=O)N(c2ccc(-c3csc(Nc4ccc(S(N)(=O)=O)cc4)n3)cc2)C1=O [3e, 4-(4-(4-(3,3-Diethyl-2,4-dioxoazetidin-1-yl)phenyl)thiazol-2-ylamino)benzenesulfo-namide]
IC50 [1]: 6.23 ± 0.42 µM
Calculated Selectivity Index SI [1]: 1.05
IC50 [2]: 6.42 ± 1.7 µM
Calculated Selectivity Index SI [2]: 1.02
IC50 [3]: 7.49 ± 0.64 µM
Calculated Selectivity Index SI [3]: 0.88
IC50 [4]: 6.57 ± 0.21 µM
percentage of A549 cells undergoing apoptosis ([5]; 5 µM): 8.79 ± 0.50%
percentage of A549 cells undergoing apoptosis ([5]; 10 µM): 14.45 ± 1.02%
percentage of A549 cells undergoing apoptosis ([5]; 20 µM): 23.39 ± 0.31%
induction of necrosis [5]: no induction of necrosis was observed
number of cells with active caspase 3 [6]: concentration-dependent increase in the number of cells with active caspase 3
IC50 [7]: 35 ± 3.88 nM
